Experimental data from patent US3980794A, “Method for promoting growth of poultry with 3-(5-nitro-2-imidazolyl)pyrazoles” (Eli Lilly and Company, priority 1975, dated 1976).
In brackets after ≈: the same amount, converted by molar mass. Read-outs that look alike come from different tables or passages of the source.

What was measured:
[1] = test system: Peptococcus anaerobius 1428; experiment: Susceptibility of anaerobic bacteria, agar dilution; type: cell-based; details: 24 h, read-out: 24 Hr. Minimum Inhibitory Concentration
[2] = test system: Clostridium perfringens 81; experiment: microbe, parasite or virus in culture; type: cell-based; details: Clostridium perfringens, 81, 24 h, read-out: 24 Hr. Minimum Inhibitory Concentration
[3] = test system: Fusobacterium symbiosum 1470; experiment: Susceptibility of anaerobic bacteria, agar dilution; type: cell-based; details: Fusobacterium, 1470, 24 h, read-out: 24 Hr. Minimum Inhibitory Concentration
[4] = test system: Clostridium septicum 1128; experiment: as above; type: cell-based; details: 24 h, read-out: 24 Hr. Minimum Inhibitory Concentration
Description: (§1) The susceptibility of anaerobic bacteria, both gram positive and gram negative, to a representative number of the novel compounds of this application was determined using the agar dilution method. The bacteria used were isolated from patients hospitalized at the Indiana University Medical Center. The isolates were identified in the anaerobe laboratory of the Medical Center by the criteria established by Dowell et al., Laboratory Methods in Anaerobic Bacteriology. Public Health Serv. Publ. No. 1803 (1968) [Center for Disease Control, Atlanta, Ga.]; and by Smith et al., The Pathogenic Anaerobic Bacteria, pages 96-136 (1968) [Charles C. Thomas, Publisher, Springfield, Ill.]. All the organisms were maintained in chopped meat glucose medium (Scott Labs) at room temperature.
(§2) The method used for the agar dilution tests was based on the studies of Sutter et al., Antimicrob. Ag. Chemother. 3, 188-193 (1973). The strains of anaerobic bacteria were grown in 16 × 120 mm. tubes for 16 to 18 hours in Thioglycolate medium without indicator--135C (Becton, Dickinson and Co.), to which was added 5 mcg. of hemin per milliliter prior to autoclaving, plus 1 mg. of sodium bicarbonate and 0.1 mcg. of filter-sterilized menadione per milliliter after autoclaving. The growth tubes for the bacteria Veillonella alcalescens were additionally supplemented with 5 mg. of sodium lactate per milliliter. The strains were adjusted to the turbidity of the No. 1 McFarland standard in Thioglycolate medium without indicator--135C containing an additional 0.13 percent Bacto-agar (Difco). Each strain was then applied to the surface of the petri plate (100 mm. × 15 mm.) by means of a replicator.
(§3) For the agar dilution studies, two-fold dilutions of the test compounds were prepared in deionized water to which was then added laked sheep blood and filter-sterilized menadione so the concentrations after the agar dilution were 5 percent and 10 mcg./ml. respectively. An equal volume of double strength Brucella agar (Becton, Dickinson and Co.) was mixed with each dilution in a water bath held at 50°C. and then poured onto the petri plates.
(§4) All of the procedures were done inside a plastic glove box, except for the incubation of the growth tubes and the pouring of the plates. After the plates hardened, they were put inside the glove box for a minimum of two hours before they were inoculated. Generally, the glove box procedures of Aranki et al., Applied Microbiology 17, 568-576 (1969), were followed, but the following modifications were used. Dry materials were introduced into the glove box by evacuating the lock to 28 inches of mercury and filling once with nitrogen gas, followed by evacuating in the same manner and filling with an 80 percent nitrogen plus 10 percent CO2 plus 10 percent hydrogen gas mixture. Liquid media and agar plates were introduced into the glove box by evacuating the lock to 10 inches of mercury and filling with gas four times. The nitrogen gas was used to fill the lock for the first two cycles of evacuation, with the gas mixture described above used for the final two fillings.
(§5) All the plates were incubated at 37°C. in Gas Pak jars (Becton, Dickinson and Co.) containing palladium-coated alumina catalysts (reactivated after each use). The results of the agar dilution tests were read after about 24 hours of incubation. The minimum inhibitory concentration (MIC) was recorded as the lowest concentration of test compound at which there was no growth.
(§6) The results of these in vitro tests are recorded in Charts 11 and 12 which follow. The test compounds are identified in the same manner as in the previous experiments. The antibiotics cephalothin and erythromycin were also run simultaneously with the novel compounds of this application, for comparison purposes, and the results are included in Charts 11 and 12 below.

[5] = test system: Clostridium septicum bovine; experiment: as above; type: cell-based; details: 24 h, read-out: 24 Hr. Minimum Inhibitory Concentration
Description: as §1, §2, §3, §4, §5, §6

Clostridium ramosum 1313 = experiment: as above; type: cell-based; details: Thomasclavelia ramosa, 24 h; Clostridium ramosum 1313; read-out: 24 Hr. Minimum Inhibitory Concentration
[6] = test system: Clostridium innocuum 1373; experiment: as above; type: cell-based; details: 24 h; Clostridium innocuum 1373; read-out: 24 Hr. Minimum Inhibitory Concentration
Actinomyces bovis 13684 = experiment: as above; type: cell-based; details: 24 h; Actinomyces bovis 13684; read-out: 24 Hr. Minimum Inhibitory Concentration
[7] = test system: Bacteroides fragilis sp. fragilis 1936B; experiment: as above; type: cell-based; details: Bacteroides fragilis, 24 h, read-out: 24 Hr. Minimum Inhibitory Concentration
[8] = test system: Veillonella alcalescens 1; experiment: as above; type: cell-based; details: Veillonella parvula, 24 h; Veillonella alcalescens 1; read-out: 24 Hr. Minimum Inhibitory Concentration
[9] = test system: Propionibacterium acnes 44; experiment: as above; type: cell-based; details: Cutibacterium acnes, 44, 24 h, read-out: 24 Hr. Minimum Inhibitory Concentration
[10] = test system: Bacteroides fragilis sp. vulgatus 1563; experiment: as above; type: cell-based; details: Bacteroides fragilis, 24 h, read-out: 24 Hr. Minimum Inhibitory Concentration
[11] = test system: Eubacterium aerofaciens 1235; experiment: as above; type: cell-based; details: Collinsella aerofaciens, 1235, 24 h, read-out: 24 Hr. Minimum Inhibitory Concentration
[12] = test system: Fusobacterium necrophorum 13859; experiment: as above; type: cell-based; details: Fusobacterium necrophorum, 13859, 24 h, read-out: 24 Hr. Minimum Inhibitory Concentration
[13] = test system: Propionibacterium acnes 79; experiment: as above; type: cell-based; details: Cutibacterium acnes, 79, 24 h, read-out: 24 Hr. Minimum Inhibitory Concentration
[14] = test system: Bacteroides fragilis sp. vulgatus 1211; experiment: as above; type: cell-based; details: Bacteroides fragilis, 24 h, read-out: 24 Hr. Minimum Inhibitory Concentration
[15] = test system: Bacteroides fragilis sp. thetaiotaomicron 1438; experiment: as above; type: cell-based; details: Bacteroides fragilis, 24 h, read-out: 24 Hr. Minimum Inhibitory Concentration
[16] = test system: Peptostreptococcus intermedius 1264; experiment: as above; type: cell-based; details: Peptostreptococcus, 1264, 24 h, read-out: 24 Hr. Minimum Inhibitory Concentration
[17] = test system: Bacteroides fragilis sp. fragilis 1877; experiment: as above; type: cell-based; details: Bacteroides fragilis, 24 h, read-out: 24 Hr. Minimum Inhibitory Concentration
Salmonella typhimurium = experiment: Control of infections caused by Salmonella typhimurium in chickens, subcutaneous (Experiment 2); type: in vivo; details: Salmonella enterica, sc, 144 h, 6 days, read-out: Survival Ratio (converted); for responders at 7.5 mg/kg: 7.5 mg./kg. subcutaneous; for responders at 15 mg/kg: 15 mg./kg. subcutaneous; for responders at 30 mg/kg: 30 mg./kg. subcutaneous; for responders at 60 mg/kg: 60 mg./kg. subcutaneous
Description: The efficacy of the novel compounds in the control of infections caused by Salmonella typhimurium in chickens was evaluated in the following manner.
The test was carried out using day-old chicks weighing approximately 35 g. each. The chicks were divided into groups of 5 chicks per each dosage level. A portion of the chicks received the test compound which was suspended in 0.2 ml. of polyethylene glycol 200 and administered subcutanusly in the neck. […] All the chicks were challenged with a 1:200 dilution of a culture of the organism, 0.1 ml. of the dilution being injected into each chick in the leg intramuscularly. […] The test compounds are identified in the same manner as set forth in Experiment 1.
In the chart, column 1 lists the compounds tested; column 2, the dosage of test compound in mg./kg.; and column 3, the survival ratio.

Pasteurella multocida = experiment: Efficacy against Pasteurella multocida infections in mice when administered by injection (Experiment 1); type: in vivo, Swiss mice; details: ip; for responders at 2.5 mg/kg: 2.5 mg./kg. i.p.; for responders at 5 mg/kg: 5.0 mg./kg. i.p.; for responders at 7.5 mg/kg: 7.5 mg./kg. i.p.
Description: The efficacy of the novel compounds against Pasteurella multocida infections in mice when administered by injection was studied.
Female Swiss mice weighing from 15 to about 20 g. were used. The test compound, 5.0 mg., was weighed out and dissolved in 0.5 ml. of dimethyl sulfoxide, and this solution was added to 9.5 ml. of sodium carboxymethylcellulose suspension. Groups of five mice each were injected intraperitoneally with 0.1 ml. each of the above-prepared test composition. This preparation gave a test rate of 2.5 mg. per kilo of body weight of mouse. The compounds were tested at 2.5, 5.0, or 7.5 mg. per kilo of body weight of mouse, and the test preparations for rates of 5.0 and 7.5 mg./kg. were prepared in a similar manner. Immediately after receiving the test compound, the mice were challenged using log10 dilutions of 10^-^4, 10^-^5, 10^-^6, and 10^-^7 of a 16 to 20-hour tryptose broth culture of Pasteurella multocida at 0.1 ml. per mouse subcutaneously. Similar groups of nontreated control mice were also challenged, the challenge being administered subcutaneously. The groups of mice were observed daily for mortality and the total mortality in treated groups compared with that which occurred in the nonmedicated control groups. Each test compound is identified by the number of the example describing its preparation.
In the chart, column 1 lists the test compound; column 2, the dosage of test compound in mg./kg. of mouse body weight; column 3, the dilution of the challenge organism; and column 4, the ratio of the number of mice surviving the test at each dosage and challenge dilution to the number of mice tested at each dosage and challenge dilution, called the survival ratio.

[18] = challenge dilution 10^-^4, read-out: Survival Ratio (converted)
[19] = challenge dilution 10^-^5, read-out: Survival Ratio (converted)
[20] = challenge dilution 10^-^6, read-out: Survival Ratio (converted)

SMILES | responders at 7.5 mg/kg (Salmonella typhimurium) | responders at 15 mg/kg (Salmonella typhimurium) | responders at 30 mg/kg (Salmonella typhimurium) | responders at 60 mg/kg (Salmonella typhimurium) | responders at 2.5 mg/kg (Pasteurella multocida; [18]) | responders at 2.5 mg/kg (Pasteurella multocida; [19]) | responders at 2.5 mg/kg (Pasteurella multocida; [20]) | responders at 5 mg/kg (Pasteurella multocida; [18]) | responders at 5 mg/kg (Pasteurella multocida; [19]) | responders at 5 mg/kg (Pasteurella multocida; [20]) | other results
CC(=O)OCC1=C(C(=O)O)N2C(=O)[C@@H](NC(=O)Cc3cccs3)[C@H]2SC1 [Cephalothin, cephalothin, reference compound] | – | – | – | – | – | – | – | – | – | – | MIC [1]: 2 µg/mL (≈ 5.04 µM); MIC [2]: 2 µg/mL (≈ 5.04 µM); MIC [3]: 64 µg/mL (≈ 161 µM); MIC [4]: 1 µg/mL (≈ 2.52 µM); MIC [5]: 4 µg/mL (≈ 10.1 µM); MIC (Clostridium ramosum 1313): 8 µg/mL (≈ 20.2 µM); MIC [6]: 8 µg/mL (≈ 20.2 µM); MIC (Actinomyces bovis 13684): 2 µg/mL (≈ 5.04 µM); MIC [7]: > 128 µg/mL; MIC [8]: < 0.5 µg/mL; MIC [9]: 2 µg/mL (≈ 5.04 µM); MIC [10]: 8 µg/mL (≈ 20.2 µM); MIC [11]: 2 µg/mL (≈ 5.04 µM); MIC [12]: < 0.5 µg/mL; MIC [13]: 1 µg/mL (≈ 2.52 µM); MIC [14]: 4 µg/mL (≈ 10.1 µM); MIC [15]: 64 µg/mL (≈ 161 µM); MIC [16]: 1 µg/mL (≈ 2.52 µM); MIC [17]: > 128 µg/mL
CC(=O)N(C(C)=O)c1c(C#N)c(-c2ncc([N+](=O)[O-])n2C)nn1C [Compound 5, N-[4-Cyano-1-methyl-3-(1-methyl-5-nitro-2-imidazolyl)pyrazol-5-yl]diacetamide] | 0% | 0% | 40% | 45% | 100% | 90% | 100% | – | – | – | –
CCOC(C)=Nc1c(C#N)c(-c2ncc([N+](=O)[O-])n2C)nn1C [Compound 13, Ethyl N-[4-cyano-1-methyl-3-(1-methyl-5-nitro-2-imidazolyl)pyrazol-5-yl]acetimidate] | 53.3% | 40% | 55% | 65% | – | – | – | – | – | – | –
Cn1nc(-c2ncc([N+](=O)[O-])n2C)c(C#N)c1N=COCCCl [Compound 13B, 2-Chloroethyl N-[4-cyano-1-methyl-3-(1-methyl-5-nitro-2-imidazolyl)pyrazol-5-yl]formimidate] | 10% | 65% | 50% | 70% | – | – | – | 90% | 70% | 80% | –
CC(C)COC=Nc1c(C#N)c(-c2ncc([N+](=O)[O-])n2C)nn1C [Compound 13C, Isobutyl N-[4-cyano-1-methyl-3-(1-methyl-5-nitro-2-imidazolyl)pyrazol-5-yl]formimidate] | 0% | 46.7% | 53.3% | 66.7% | 40% | 30% | 70% | 40% | 80% | 90% | responders at 7.5 mg/kg (Pasteurella multocida; challenge dilution 10^-^4, read-out: Survival Ratio): 80%; responders at 7.5 mg/kg (Pasteurella multocida; challenge dilution 10^-^5, read-out: Survival Ratio): 100%; responders at 7.5 mg/kg (Pasteurella multocida; challenge dilution 10^-^6, read-out: Survival Ratio): 100%
